Results from patent US20070049593A1 (priority 2004, published 2007).
Where a name gives a salt, the structure may show the parent alone.

These molecules were tested against T1, HCV polymerase (Hepatitis C virus genotype 1b, UniProt P26663) (assay: biochemical). Conditions: not given.
T1 construct: a region encoding NS5B (J Virol 1991 March, 65(3), 1105-13, 544 amino acids after deletion of 47 amino acids on the C-terminal); 6xHis (C); made in house; host or cells: Escherichia coli
Design: species or system HCV BK strain
Summary of the method: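 His-tagged NS5B (BK strain, 47-aa C-terminal deletion, E. coli-expressed) at 0.5 μg/ml copied 5 μg/ml run-off RNA bearing the HCV 3′ UTR with 2 μM UTP plus [3H]UTP, 50 μM ATP/GTP, in pH 7.5 Tris with 5 mM MgCl2, 25 °C, 90 min. TCA-precipitated RNA was counted and IC50 calculated.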

T1 sequence (P26663 2420-2963): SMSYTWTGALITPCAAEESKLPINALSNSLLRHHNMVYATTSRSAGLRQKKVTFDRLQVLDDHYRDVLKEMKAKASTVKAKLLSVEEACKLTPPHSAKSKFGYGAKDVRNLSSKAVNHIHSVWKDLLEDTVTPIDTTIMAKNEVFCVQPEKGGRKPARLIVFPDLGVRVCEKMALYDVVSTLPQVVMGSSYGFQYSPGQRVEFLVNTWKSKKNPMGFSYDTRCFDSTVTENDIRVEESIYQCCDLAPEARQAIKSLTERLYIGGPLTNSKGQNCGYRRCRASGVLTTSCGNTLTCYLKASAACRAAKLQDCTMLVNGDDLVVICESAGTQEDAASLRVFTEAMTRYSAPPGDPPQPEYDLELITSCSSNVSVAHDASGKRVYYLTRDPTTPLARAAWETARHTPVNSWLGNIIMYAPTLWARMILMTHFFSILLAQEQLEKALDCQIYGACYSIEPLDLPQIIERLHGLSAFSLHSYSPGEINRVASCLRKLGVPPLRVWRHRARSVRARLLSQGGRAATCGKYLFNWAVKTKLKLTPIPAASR

SMILES	IC50 [nM]
O=C(O)c1ccc2c(C3CCCCC3)c3n(c2c1)CCN(CCN1CCCCC1)c1cc(F)c(F)cc1-3 [Example 1-248, 13-cyclohexyl-2,3-difluoro-5-[2-(piperidin-1-yl)ethyl]-6,7-dihydro-5H-benzo[5,6][1,4]diazepino[7,1-a]indole-10-carboxylic acid dihydrochloride]	< 100
CCC1CCCN(CCN2CCn3c(c(C4CCCCC4)c4ccc(C(=O)O)cc43)-c3ccc(Cl)cc32)C1 (centres unmarked) [Example 1-249, 3-chloro-13-cyclohexyl-5-[2-(3-ethylpiperidin-1-yl)ethyl]-6,7-dihydro-5H-benzo[5,6][1,4]diazepino[7,1-a]indole-10-carboxylic acid dihydrochloride]	< 100
COC(=O)N1CCC(N(C)CCN2CCn3c(c(C4CCCCC4)c4ccc(C(=O)O)cc43)-c3ccccc32)C1 (centres unmarked) [Example 1-250, 13-cyclohexyl-5-{2-[N-(1-methoxycarbonylpyrrolidin-3-yl)-N-methylamino]ethyl}-6,7-dihydro-5H-benzo[5,6][1,4]diazepino[7,1-a]indole-10-carboxylic acid monohydrochloride]	< 100
CC(=O)N1CCC(N(C)CCN2CCn3c(c(C4CCCCC4)c4ccc(C(=O)O)cc43)-c3ccccc32)C1 (centres unmarked) [Example 1-251, 5-{2-[N-(1-acetylpyrrolidin-3-yl)-N-methylamino]ethyl}-13-cyclohexyl-6,7-dihydro-5H-benzo[5,6][1,4]diazepino[7,1-a]indole-10-carboxylic acid monohydrochloride]	< 100
CN(CCN1CCn2c(c(C3CCCCC3)c3ccc(C(=O)O)cc32)-c2ccccc21)C1CCN(S(C)(=O)=O)C1 (centres unmarked) [Example 1-252, 13-cyclohexyl-5-{2-[N-(1-methanesulfonylpyrrolidin-3-yl)-N-methylamino]ethyl}-6,7-dihydro-5H-benzo[5,6][1,4]diazepino[7,1-a]indole-10-carboxylic-acid]	< 100
Cc1ccc2c(c1)N(CCN1CCCC(C)C1)CCn1c-2c(C2CCCCC2)c2ccc(C(=O)O)cc21 (centres unmarked) [Example 1-253, 13-cyclohexyl-3-methyl-5-[2-(3-methylpiperidin-1-yl)ethyl]-6,7-dihydro-5H-benzo[5,6][1,4]diazepino[7,1-a]indole-10-carboxylic acid dihydrochloride]	< 100
CC1CCCN(CCN2CCn3c(c(C4CCCCC4)c4ccc(C(=O)O)cc43)-c3ccc(F)cc32)C1 (centres unmarked) [Example 1-254, 13-cyclohexyl-3-fluoro-5-[2-(3-methylpiperidin-1-yl)ethyl]-6,7-dihydro-5H-benzo[5,6][1,4]diazepino[7,1-a]indole-10-carboxylic acid dihydrochloride]	< 100
CC1CN(CCN2CCn3c(c(C4CCCCC4)c4ccc(C(=O)O)cc43)-c3ccccc32)CCO1 (centres unmarked) [Example 1-255, 13-cyclohexyl-5-[2-(2-methylmorpholin-4-yl)ethyl]-6,7-dihydro-5H-benzo[5,6][1,4]diazepino[7,1-a]indole-10-carboxylic acid dihydrochloride]	< 100
CCC1CN(CCN2CCn3c(c(C4CCCCC4)c4ccc(C(=O)O)cc43)-c3ccccc32)CCO1 (centres unmarked) [Example 1-256, 13-cyclohexyl-5-[2-(2-ethylmorpholin-4-yl)ethyl]-6,7-dihydro-5H-benzo[5,6][1,4]diazepino[7,1-a]indole-10-carboxylic acid dihydrochloride]	< 100
CCC1COCCN1CCN1CCn2c(c(C3CCCCC3)c3ccc(C(=O)O)cc32)-c2ccccc21 (centres unmarked) [Example 1-257, 13-cyclohexyl-5-[2-(3-ethylmorpholin-4-yl)ethyl]-6,7-dihydro-5H-benzo[5,6][1,4]diazepino[7,1-a]indole-10-carboxylic acid dihydrochloride]	< 100
Cc1ccc2c(c1)N(CCN1CCCCC1C)CCn1c-2c(C2CCCCC2)c2ccc(C(=O)O)cc21 (centres unmarked) [Example 1-258, 13-cyclohexyl-3-methyl-5-[2-(2-methylpiperidin-1-yl)ethyl]-6,7-dihydro-5H-benzo[5,6][1,4]diazepino[7,1-a]indole-10-carboxylic acid dihydrochloride]	< 100
Cc1ccc2c(c1)N(CCN1CCC(C)CC1)CCn1c-2c(C2CCCCC2)c2ccc(C(=O)O)cc21 [Example 1-259, 13-cyclohexyl-3-methyl-5-[2-(4-methylpiperidin-1-yl)ethyl]-6,7-dihydro-5H-benzo[5,6][1,4]diazepino[7,1-a]indole-10-carboxylic acid dihydrochloride]	< 100
Cc1ccc2c(c1)N(CCN1CCCC1)CCn1c-2c(C2CCCCC2)c2ccc(C(=O)O)cc21 [Example 1-260, 13-cyclohexyl-3-methyl-5-[2-(pyrrolidin-1-yl)ethyl]-6,7-dihydro-5H-benzo[5,6][1,4]diazepino[7,1-a]indole-10-carboxylic acid dihydrochloride]	< 100
CCN1CCCC(CCN2CCn3c(c(C4CCCCC4)c4ccc(C(=O)O)cc43)-c3ccc(Cl)cc32)C1 (centres unmarked) [Example 1-261, 3-chloro-13-cyclohexyl-5-[2-(1-ethylpiperidin-3-yl)ethyl]-6,7-dihydro-5H-benzo[5,6][1,4]diazepino[7,1-a]indole-10-carboxylic acid dihydrochloride]	< 100
CN1CCC(OCCN2CCn3c(c(C4CCCCC4)c4ccc(C(=O)O)cc43)-c3ccc(Cl)cc32)CC1 [Example 1-262, 3-chloro-13-cyclohexyl-5-[2-(1-methylpiperidin-4-yloxy)ethyl]-6,7-dihydro-5H-benzo[5,6][1,4]diazepino[7,1-a]indole-10-carboxylic acid dihydrochloride]	< 100
CC(C)CN1CCCC(CCN2CCn3c(c(C4CCCCC4)c4ccc(C(=O)O)cc43)-c3ccc(Cl)cc32)C1 (centres unmarked) [Example 1-263, 3-chloro-13-cyclohexyl-5-[2-(1-isobutylpiperidin-3-yl)ethyl]-6,7-dihydro-5H-benzo[5,6][1,4]diazepino[7,1-a]indole-10-carboxylic acid dihydrochloride]	< 100
O=C(O)c1ccc2c(C3CCCCC3)c3n(c2c1)CCN(CCC1CCCN(C2CCCC2)C1)c1cc(Cl)ccc1-3 (centres unmarked) [Example 1-264, 3-chloro-13-cyclohexyl-5-[2-(1-cyclopentylpiperidin-3-yl)ethyl]-6,7-dihydro-5H-benzo[5,6][1,4]diazepino[7,1-a]indole-10-carboxylic acid dihydrochloride]	< 100
COC1CCCN(CCN2CCn3c(c(C4CCCCC4)c4ccc(C(=O)O)cc43)-c3ccc(Cl)cc32)C1 (centres unmarked) [Example 1-265, 3-chloro-13-cyclohexyl-5-[2-(3-methoxypiperidin-1-yl)ethyl]-6,7-dihydro-5H-benzo[5,6][1,4]diazepino[7,1-a]indole-10-carboxylic acid dihydrochloride]	< 100
COC1CCCN(CCN2CCn3c(c(C4CCCCC4)c4ccc(C(=O)O)cc43)-c3ccc(C)cc32)C1 (centres unmarked) [Example 1-266, 13-cyclohexyl-5-[2-(3-methoxypiperidin-1-yl)ethyl]-3-methyl-6,7-dihydro-5H-benzo[5,6][1,4]diazepino[7,1-a]indole-10-carboxylic acid dihydrochloride]	< 100
CCCC1CCCN(CCN2CCn3c(c(C4CCCCC4)c4ccc(C(=O)O)cc43)-c3ccc(Cl)cc32)C1 (centres unmarked) [Example 1-267, 3-chloro-13-cyclohexyl-5-[2-(3-propylpiperidin-1-yl)ethyl]-6,7-dihydro-5H-benzo[5,6][1,4]diazepino[7,1-a]indole-10-carboxylic acid dihydrochloride]	< 100
O=C(O)c1ccc2c(C3CCCCC3)c3n(c2c1)CCN(CCCN1CCCC1)c1cc(Cl)ccc1-3 [Example 1-269, 3-chloro-13-cyclohexyl-5-[3-(pyrrolidin-1-yl)propyl]-6,7-dihydro-5H-benzo[5,6][1,4]diazepino[7,1-a]indole-10-carboxylic acid dihydrochloride]	< 100
O=C(O)c1ccc2c(C3CCCCC3)c3n(c2c1)CCN(CCCN1CCCOCC1)c1cc(Cl)ccc1-3 [Example 1-270, 3-chloro-13-cyclohexyl-5-[3-(1,4-oxazepan-4-yl)propyl]-6,7-dihydro-5H-benzo[5,6][1,4]diazepino[7,1-a]indole-10-carboxylic acid dihydrochloride]	< 100
COCC1CCCCN1CCN1CCn2c(c(C3CCCCC3)c3ccc(C(=O)O)cc32)-c2ccccc21 (centres unmarked) [Example 1-271, 13-cyclohexyl-5-[2-(2-methoxymethylpiperidin-1-yl)ethyl]-6,7-dihydro-5H-benzo[5,6][1,4]diazepino[7,1-a]indole-10-carboxylic acid dihydrochloride]	< 100
CCC1CCCN(CCN2CCn3c(c(C4CCCCC4)c4ccc(C(=O)O)cc43)-c3ccc(C)cc32)C1 (centres unmarked) [Example 1-272, 13-cyclohexyl-5-[2-(3-ethylpiperidin-1-yl)ethyl]-3-methyl-6,7-dihydro-5H-benzo[5,6][1,4]diazepino[7,1-a]indole-10-carboxylic acid dihydrochloride]	< 100
CCN1CCCC(CCN2CCn3c(c(C4CCCCC4)c4ccc(C(=O)O)cc43)-c3ccc(C)cc32)C1 (centres unmarked) [Example 1-273, 13-cyclohexyl-5-[2-(1-ethylpiperidin-3-yl)ethyl]-3-methyl-6,7-dihydro-5H-benzo[5,6][1,4]diazepino[7,1-a]indole-10-carboxylic acid dihydrochloride]	< 100

Same assay, conditions: 25° C., 90 min; [5,6-3H]UTP incorporation into RNA; read-out: HCV polymerase inhibitory activity IC50

SMILES	IC50 [nM]
CCCC1CCCN(CCN2CCn3c(c(C4CCCCC4)c4ccc(C(=O)O)cc43)-c3ccc(C)cc32)C1 (centres unmarked) [Example 1-268, 13-cyclohexyl-3-methyl-5-[2-(3-propylpiperidin-1-yl)ethyl]-6,7-dihydro-5H-benzo[5,6][1,4]diazepino[7,1-a]indole-10-carboxylic acid dihydrochloride]	< 100
